One experiment concerns the target T1, HsOrco (Harpegnathos saltator, UniProt E2BJ30).
T1 construct: gene Orco
T1 sequence (E2BJ30 1-479): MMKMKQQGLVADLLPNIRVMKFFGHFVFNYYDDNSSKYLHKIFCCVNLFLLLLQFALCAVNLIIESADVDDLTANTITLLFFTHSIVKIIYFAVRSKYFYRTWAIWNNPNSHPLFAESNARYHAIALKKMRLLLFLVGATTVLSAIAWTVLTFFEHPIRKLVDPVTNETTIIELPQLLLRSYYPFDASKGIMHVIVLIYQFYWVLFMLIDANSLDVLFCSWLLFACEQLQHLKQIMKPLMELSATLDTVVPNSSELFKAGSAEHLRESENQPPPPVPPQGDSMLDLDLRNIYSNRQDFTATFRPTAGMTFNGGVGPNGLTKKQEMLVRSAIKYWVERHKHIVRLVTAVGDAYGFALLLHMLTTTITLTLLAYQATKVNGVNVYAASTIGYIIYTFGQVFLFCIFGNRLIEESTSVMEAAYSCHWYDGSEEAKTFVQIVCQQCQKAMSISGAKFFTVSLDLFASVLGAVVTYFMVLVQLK
The experiment is described as follows: whole-cell patch clamp, HEK cells, […] antagonist against […] VUAA1. It is filed as cell-based.

Experiment [1] addresses T2, AgOrco (Anopheles gambiae, UniProt Q7QCC7).
T2 construct: gene Orco
T2 sequence (Q7QCC7 1-478): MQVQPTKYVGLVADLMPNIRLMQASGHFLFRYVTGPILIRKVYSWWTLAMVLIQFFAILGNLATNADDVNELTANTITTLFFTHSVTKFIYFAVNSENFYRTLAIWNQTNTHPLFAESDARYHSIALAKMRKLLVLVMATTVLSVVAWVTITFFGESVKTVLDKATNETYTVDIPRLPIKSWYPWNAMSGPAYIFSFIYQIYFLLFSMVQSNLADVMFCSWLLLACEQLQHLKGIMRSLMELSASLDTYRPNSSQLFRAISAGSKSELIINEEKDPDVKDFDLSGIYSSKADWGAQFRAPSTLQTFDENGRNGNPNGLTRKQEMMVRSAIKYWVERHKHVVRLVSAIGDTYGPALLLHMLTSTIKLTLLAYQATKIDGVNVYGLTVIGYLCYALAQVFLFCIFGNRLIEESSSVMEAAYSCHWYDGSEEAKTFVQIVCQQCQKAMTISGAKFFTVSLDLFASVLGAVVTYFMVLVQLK
The experiment is described as follows: calcium mobilization in AgOrco-only HEK cells against VUAA1; whole-cell patch clamp. It is filed as cell-based.

The target of experiment [2] is T2, AgOrco. The experiment is described as follows: calcium mobilization in AgOrco-only HEK cells against VUAA1. The experiment is classed as cell-based. Background: Calcium assays in cells follow changes in intracellular calcium, usually with a dye or a luminescent sensor.
The target in another experiment is TRPV1 (Rattus norvegicus, UniProt O35433). The experiment is described as follows: whole-cell patch clamp in HEK cells, […] capsaicin. It is filed as cell-based. In general terms: The patch-clamp technique gives a direct electrical read-out from membranes.
Another experiment relates to T3, AgOr65.
T3 construct: gene Or65; with AgOrco
The experiment is described as follows: calcium mobilization concentration response in AgOrco+AgOr65 HEK cells; patch clamp. The experiment is classed as cell-based, Anopheles gambiae.

SMILES strings stand for the structures.

TRPV1, sequence (O35433 whole entry): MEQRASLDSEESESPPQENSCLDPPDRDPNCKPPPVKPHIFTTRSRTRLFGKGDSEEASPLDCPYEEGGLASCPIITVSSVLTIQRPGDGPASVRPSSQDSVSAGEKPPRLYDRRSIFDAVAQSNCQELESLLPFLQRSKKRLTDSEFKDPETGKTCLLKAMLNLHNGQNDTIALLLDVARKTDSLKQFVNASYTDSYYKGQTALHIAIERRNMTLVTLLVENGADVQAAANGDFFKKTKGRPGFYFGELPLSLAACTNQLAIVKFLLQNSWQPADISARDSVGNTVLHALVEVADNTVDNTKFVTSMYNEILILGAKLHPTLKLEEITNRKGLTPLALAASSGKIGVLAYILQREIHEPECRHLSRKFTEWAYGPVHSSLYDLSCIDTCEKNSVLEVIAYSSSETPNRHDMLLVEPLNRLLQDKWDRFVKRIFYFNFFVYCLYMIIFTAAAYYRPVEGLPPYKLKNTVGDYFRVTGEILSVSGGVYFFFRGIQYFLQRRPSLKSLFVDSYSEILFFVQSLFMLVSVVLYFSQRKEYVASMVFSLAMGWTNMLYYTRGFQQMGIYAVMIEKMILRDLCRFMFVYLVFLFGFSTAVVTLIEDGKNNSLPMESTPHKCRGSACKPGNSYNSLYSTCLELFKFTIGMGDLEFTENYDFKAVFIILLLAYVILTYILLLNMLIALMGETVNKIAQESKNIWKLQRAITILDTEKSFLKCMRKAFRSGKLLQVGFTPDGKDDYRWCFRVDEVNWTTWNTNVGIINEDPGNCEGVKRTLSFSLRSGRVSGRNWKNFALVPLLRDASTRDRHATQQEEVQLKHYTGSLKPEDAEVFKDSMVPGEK

As usually defined, the IC50 is the concentration that inhibits the measured activity by half. Consider `CCn1c(SCC(=O)N2c3ccccc3Sc3ccccc32)nnc1-c1ccco1` [VU0183254, 10-({[4-ethyl-5-(2-furyl)-4H-1,2,4-triazol-3-yl]thio}acetyl)-10H-phenothiazine], for which the “%” value on HsOrco is reported as 63.9±2.2%. Besides, at AgOrco [1], the half-inhibitory concentration (IC50) is 12.6 µM.
With `CCn1c(SCC(=O)Nc2ccc(Br)cc2C)nnc1-c1cccnc1` [VU0450667, N-(4-bromo-2-methylphenyl)-2-((4-ethyl-5-(pyridin-3-yl)-4H-1,2,4-triazol-3-yl)thio)acetamide], at AgOrco [2], the IC50 was 1580 µM.
Take `COc1cc(CNC(=O)CCCC/C=C/C(C)C)ccc1O` [capsaicin]: the “whole-cell patch clamp in HEK cells, 10 μM capsaicin” value on TRPV1 is “VU0183254 did not affect the macroscopic currents induced by the natural TRPV1 ligand capsaicin”.
On to `C=CCc1ccc(O)c(OC)c1` [eugenol], for which the EC50 in the experiment on AgOr65 is −6.69+/−.03 log M.

Values taken from publication PMC3260273, “Allosteric Antagonism of Insect Odorant Receptor Ion Channels” (PLoS ONE, 2012).
